The test system of one assay is BaF3 CD74-TRKA-G595R. Kind of assay: BaF3 cell proliferation, CCK-8 assay. The note with it: Mus musculus, BaF3, 72 h, read-out: IC50 (nM ± SD) Solvent Front CD74-TRKA-G595R.
The next assay deals with BaF3 CD74-TRKA. Kind of assay: BaF3 cell proliferation, CCK-8 assay. The note with it: Mus musculus, BaF3, 72 h, read-out: IC50 (nM ± SD) WT CD74-TRKA.
The subject of a further assay is BaF3 QKI-TRKB. In words: BaF3 cell proliferation, CCK-8 assay. Particulars: Mus musculus, BaF3, 72 h, read-out: IC50 (nM ± SD) WT QKI-TRKB. On the technique in general: Tetrazolium dyes change colour on reduction, which living cells bring about.
For a further assay, the system named is BaF3 ETV6-TRKB-G709C. Kind of assay: BaF3 cell proliferation, CCK-8 assay. Particulars: Mus musculus, BaF3, 72 h, read-out: IC50 (nM ± SD) xDFG ETV6-TRKB-G709C.
Another assay deals with BaF3 ETV6-TRKB-F633L. In words: BaF3 cell proliferation, CCK-8 assay. Particulars: Mus musculus, BaF3, 72 h, read-out: IC50 (nM ± SD) Gatekeeper ETV6-TRKB-F633L.
A further assay deals with BaF3 EML4-TRKC. In words: BaF3 cell proliferation, CCK-8 assay. Particulars: Mus musculus, BaF3, 72 h, read-out: IC50 (nM ± SD) WT EML4-TRKC.
The subject of a further assay is BaF3 ETV6-TRKC-G623R. In words: BaF3 cell proliferation, CCK-8 assay. The note with it: Mus musculus, BaF3, 72 h, read-out: IC50 (nM ± SD) Solvent Front ETV6-TRKC-G623R.
A further assay has as its system BaF3 CD74-TRKA-G667C. In words: BaF3 cell proliferation, CCK-8 assay. Particulars: Mus musculus, BaF3, 72 h, read-out: IC50 (nM ± SD) xDFG CD74-TRKA-G667C.
The subject of assay [1] is TRKs-xDGF mutants TRKA-G667C, TRKB-G709C and TRKC-G696C in stable BaF3 models. Kind of assay: Western blot of xDFG mutant TRK signal pathway (Figure S2). The format is cell-based, Murine. Particulars: even at 200 nM, 6 h. The protocol: Cells were treated with various concentrations of each tested compound for a designated time. Then cells were lysed using 1 × SDS sample lysis buffer (CST recommended) with protease and phosphatase inhibitors. […] The films were blocked with 5% fat-free milk in TBS solution containing 0.5% Tween-20 for 4 h at room temperature, then incubated with the corresponding primary antibody (1:1000–1:200) overnight at 4 °C. After washing with TBST, HRP-conjugated secondary antibody was incubated for 2 h. The protein signals were visualized by ECL Western Blotting Detection Kit (Thermo Scientific, Waltham, MA, USA), and detected with Amersham Imager 600 system (GE, Boston, MA, USA).
A general note: In western blotting, separated proteins are transferred to a membrane and probed.

Assay [2] has as its system BaF3-CD74-TRKA-G667C cells. Kind of assay: Apoptosis by flow cytometry (Annexin V / 7-AAD). The format is cell-based, Murine. Particulars: even at a concentration of 50 nM. The protocol:
For analysis of the cell cycle, cells were harvested and washed twice with PBS after treatment for 24 h with indicated drugs or DMSO. […] The cells were then analyzed on a Guava easyCyte flow cytometer (Merck, Whitehouse Station, NJ, USA). For analysis of cell apoptosis, cells were harvested and washed twice with ice-cold PBS after treatment for 48 h with indicated drugs or DMSO. […] Finally, 400 μL of a 1 × BD binding buffer solution was replenished. The cells were then analyzed on a Guava easyCyte flow cytometer (Merck, Whitehouse Station, NJ, USA).

Another assay concerns Parental BaF3 (+IL3). Kind of assay: BaF3 cell proliferation, CCK-8 assay. Particulars: Mus musculus, BaF3, 72 h, read-out: IC50 (nM ± SD) Parental BaF3 (+IL3).
The subject of the next assay is BaF3 CD74-TRKA-F589L. In words: BaF3 cell proliferation, CCK-8 assay. The note with it: Mus musculus, BaF3, 72 h, read-out: IC50 (nM ± SD) Gatekeeper CD74-TRKA-F589L.
In assay [3] the test system is BaF3 cells with solvent front mutations (TRKA^G595R, TRKB^G639R, TRKC^G623R). In words: BaF3 cell proliferation, summary over solvent front lines. The note with it: Mus musculus, BaF3, read-out: IC50 range in cells with solvent front mutations.
A further assay relates to BaF3 ETV6-TRKB. In words: BaF3 cell proliferation, CCK-8 assay. The note with it: Mus musculus, BaF3, 72 h, read-out: IC50 (nM ± SD) WT ETV6-TRKB.
For a further assay, the system named is BaF3 ETV6-TRKC-G696C. In words: BaF3 cell proliferation, CCK-8 assay. Particulars: Mus musculus, BaF3, 72 h, read-out: IC50 (nM ± SD) xDFG ETV6-TRKC-G696C.
Another assay concerns BaF3 ETV6-TRKC-F617L. Kind of assay: BaF3 cell proliferation, CCK-8 assay. Particulars: Mus musculus, BaF3, 72 h, read-out: IC50 (nM ± SD) Gatekeeper ETV6-TRKC-F617L.
The subject of the next assay is BaF3 ETV6-TRKC. In words: BaF3 cell proliferation, CCK-8 assay. The note with it: Mus musculus, BaF3, 72 h, read-out: IC50 (nM ± SD) WT ETV6-TRKC.
The next assay concerns BaF3 MPRIP-TRKA. In words: BaF3 cell proliferation, CCK-8 assay. The note with it: read-out: IC50 (nM ± SD) WT MPRIP-TRKA.
The subject of the next assay is BaF3 ETV6-TRKB-G639R. Kind of assay: BaF3 cell proliferation, CCK-8 assay. The note with it: Mus musculus, BaF3, 72 h, read-out: IC50 (nM ± SD) Solvent Front ETV6-TRKB-G639R.
The next assay has as its system TRKA^G667C mutant. Kind of assay: Multi-target kinase inhibitors in BaF3 cell proliferation assays (Table S3). Type of assay: cell-based, Murine.
Assay [4] deals with wild-type TRKA/B/C or solvent-front mutations. The description is as above. Type of assay: cell-based, Murine.
Assay [5] deals with BaF3 cells with gatekeeper mutations (TRKA^F589L, TRKB^F663L, TRKC^F617L). In words: BaF3 cell proliferation, summary over gatekeeper lines. The note with it: Mus musculus, BaF3, read-out: IC50 in cells with gatekeeper mutations.

Read-outs that look alike come from different tables or passages of the source.

As usually defined, the IC50 is the concentration needed to halve the response being measured. As to `C[C@@H]1CCc2ncc(F)cc2[C@H]2CCCN2c2ccn3ncc(c3n2)C(=O)N1` [Selitrectinib], the IC50 in the assay with BaF3 CD74-TRKA-G595R amounted to 13.6 ± 3.3 nM; in the assay with BaF3 CD74-TRKA it was 2.5 ± 0.2 nM; with BaF3 QKI-TRKB it was 1.5 ± 0.4 nM; with BaF3 ETV6-TRKB-G709C it was 168 ± 73 nM; with BaF3 ETV6-TRKB-F633L, 55.8 ± 10.8 nM; in the assay on BaF3 EML4-TRKC, 2.1 ± 0.2 nM. The IC50 in the assay on BaF3 ETV6-TRKC-G623R is 9.6 ± 1.2 nM; with BaF3 CD74-TRKA-G667C it was 66.3 ± 13 nM; in the assay with Parental BaF3 (+IL3), over 10000 nM; in the assay with BaF3 CD74-TRKA-F589L it was 17.3 ± 2.2 nM; in [3] it was 0.0094 to 0.0337 µM; in the assay on BaF3 ETV6-TRKB, 4.9 ± 1.4 nM. In addition, the IC50 amounted to 98.4 ± 55 nM in the assay on BaF3 ETV6-TRKC-G696C; 20.8 ± 7.9 nM in the assay on BaF3 ETV6-TRKC-F617L; 1.7 ± 1.1 nM with BaF3 ETV6-TRKC; 1.1 ± 0.4 nM in the assay on BaF3 MPRIP-TRKA (Mus musculus, BaF3, 72 h); 11.4 ± 2.2 nM in the assay on BaF3 ETV6-TRKB-G639R. Also, the “inhibition of the activation of TRKs-xDGF mutants” value in [1] was “limited inhibition”. The “effect on cell cycle or apoptosis” value in [2] is “little effect”.
As for `Cc1ccc(C(=O)Nc2ccc(CN3CCN(C)CC3)c(C(F)(F)F)c2)cc1C#Cc1cnc2cccnn12` [ponatinib], the “activity against TRKA^G667C mutant” value with TRKA^G667C mutant is on record as “good activity”. The “activity against wild-type TRKA/B/C or solvent-front mutations” value in [4] is listed as “weak activity”.
Turning to `O=C(Nc1cnn2ccc(N3CCC[C@@H]3c3cc(F)ccc3F)nc12)N1CC[C@H](O)C1` [Larotrectinib], the IC50 in the assay with BaF3 CD74-TRKA-G595R was 1110 ± 251 nM; in the assay on BaF3 CD74-TRKA it was 8 ± 0.8 nM; with BaF3 QKI-TRKB it was 11.4 ± 4.2 nM; with BaF3 ETV6-TRKB-G709C it was 1630 ± 821 nM; with BaF3 ETV6-TRKB-F633L, 1400 ± 214 nM; in the assay with BaF3 EML4-TRKC, 21.7 ± 6.9 nM. For the same molecule, the IC50 in the assay with BaF3 ETV6-TRKC-G623R is 1270 ± 165 nM; in the assay on BaF3 CD74-TRKA-G667C it was 313 ± 48.5 nM; in the assay with Parental BaF3 (+IL3) it was over 10000 nM; with BaF3 CD74-TRKA-F589L, 423 ± 92.6 nM; in the assay with BaF3 ETV6-TRKB, 24 ± 4.2 nM; with BaF3 ETV6-TRKC-G696C it was 769 ± 325 nM. For the same molecule, the IC50 is 513 ± 156 nM in the assay with BaF3 ETV6-TRKC-F617L; over 0.423 µM in [5]; 11.2 ± 2.8 nM in the assay with BaF3 ETV6-TRKC; 4.8 ± 1.2 nM in the assay on BaF3 MPRIP-TRKA (Mus musculus, BaF3, 72 h); 1900 ± 778 nM in the assay with BaF3 ETV6-TRKB-G639R. In addition, the “inhibition of the activation of TRKs-xDGF mutants” value in assay [1] is “limited inhibition”. Further, in assay [2], the “effect on cell cycle or apoptosis” value is on record as “little effect”.
On to `CN1CCN(c2ccc(C(=O)Nc3n[nH]c4ccc(Cc5cc(F)cc(F)c5)cc34)c(NC3CCOCC3)c2)CC1` [Entrectinib], for which the concentration for half-maximal inhibition (IC50) in the assay on BaF3 CD74-TRKA was determined as 4.4 ± 1 nM; in the assay on BaF3 QKI-TRKB, 4.8 ± 1.6 nM; in the assay on BaF3 ETV6-TRKB-G709C it was 285 ± 92.4 nM; in the assay with BaF3 ETV6-TRKB-F633L, 13 ± 3.6 nM; in the assay with BaF3 EML4-TRKC, 5.2 ± 1.6 nM; with BaF3 ETV6-TRKC-G623R, 617 ± 69.8 nM. The IC50 in the assay with BaF3 CD74-TRKA-G667C was 33.2 ± 3.2 nM; with Parental BaF3 (+IL3) it was 2340 ± 202 nM; in the assay with BaF3 CD74-TRKA-F589L it was 2.1 ± 0.3 nM; with BaF3 ETV6-TRKB it was 8 ± 3.1 nM; with BaF3 ETV6-TRKC-G696C, 124 ± 60.4 nM; in the assay on BaF3 ETV6-TRKC-F617L, 4.6 ± 2.8 nM. In addition, the IC50 in the assay with BaF3 ETV6-TRKC is 7.8 ± 4.2 nM; with BaF3 MPRIP-TRKA (Mus musculus, BaF3, 72 h), 1.6 ± 0.4 nM; in the assay with BaF3 ETV6-TRKB-G639R it was 529 ± 130 nM.
For `COc1cc2nccc(Oc3ccc(NC(=O)C4(C(=O)Nc5ccc(F)cc5)CC4)cc3)c2cc1OC` [cabozantinib], the “activity against TRKA^G667C mutant” value with TRKA^G667C mutant was “good activity”. Further, the “activity against wild-type TRKA/B/C or solvent-front mutations” value in assay [4] is recorded as “weak activity”.
For `C[C@H]1CNC(=O)c2cnn3ccc(nc23)N[C@H](C)c2cc(F)ccc2O1` [Repotrectinib], the IC50 stood at 0.8 ± 0.7 nM in the assay on BaF3 QKI-TRKB; 89.7 ± 38.8 nM with BaF3 ETV6-TRKB-G709C; 4.9 ± 2.2 nM with BaF3 ETV6-TRKB-F633L; 2.7 ± 1.6 nM with BaF3 EML4-TRKC; 14.6 ± 4.7 nM in the assay on BaF3 ETV6-TRKC-G623R; 906 ± 69 nM in the assay with Parental BaF3 (+IL3). Also, the IC50 in the assay on BaF3 ETV6-TRKB was found to be 2.3 ± 0.5 nM; in the assay on BaF3 ETV6-TRKC-G696C, 42.9 ± 33.6 nM; in the assay on BaF3 ETV6-TRKC-F617L, 2.1 ± 1.1 nM; in the assay with BaF3 ETV6-TRKC, 2.1 ± 0.9 nM; in the assay with BaF3 MPRIP-TRKA (CCK-8, 72 h), 1.1 ± 0.2 nM.

Values taken from article PMC9570838, “JND4135, a New Type II TRK Inhibitor, Overcomes TRK xDFG and Other Mutation Resistance In Vitro and In Vivo” (Molecules, 2022).
